Values after ≈ are worked out from the molar mass of the structure shown. Where a name gives a salt, the structure may show the parent alone. Read-outs that look alike come from different tables or passages of the source.
Legend:
[1] = Stability in USP simulated gastric juice; type: in vitro ADME; details: USP SGF pH 1.1, pepsin […], prodrug 20 μg/mL
Excerpt: To minimize the direct inhibitory action of this drug on gastric emptying/gut motility—and resultant nausea—the prodrug should not undergo premature chemical or enzymic cleavage back to the parent drug while within the gut lumen.

Eggerthella lenta = assay: MIC, clindamycin prodrugs; type: cell-based
[2] = tested on: Peptostreptococcus anaerobius; assay: MIC, clindamycin prodrugs; type: cell-based; details: NCTC 11460
[3] = relative bioavailability of clindamycin vs dosing clindamycin itself, male rats, mean
Experimental: Serial tail vein blood samples were subsequently collected via an indwelling cannuala into EDTA tubes containing a stabilising cocktail (including 6 mg/mL NaF) to prevent post collection enzymic hydrolysis of the prodrug.

Clostridium difficile [4] = tested on: Clostridium difficile
Clostridium novyi [5] = details: ATCC 19402
Clostridium sordellii [6] = details: NCTC 13356
[7] = tested on: Fusobacterium necrophorum; details: clinical isolate
Fusobacterium nucleatum [8] = details: clinical isolate
[9] = tested on: Peptostreptococcus magnus; details: clinical isolate
[10] = tested on: Porphyromonas assacharolyticus; details: clinical isolate
[11] = tested on: Porphyromonas endodontalis; details: clinical isolate
Prevotella bivia = details: ATCC 29303
Prevotella denticola [12] = details: clinical isolate
Enterococcus faecalis [13] = details: ATCC 29212 antibiotic-susceptible type strain
Corynebacterium jeikeium = details: antibiotic-susceptible clinical isolate
Listeria monocytogenes = details: antibiotic-susceptible clinical isolate
Streptococcus agalactiae = details: antibiotic-susceptable clinical isolate
Group G Streptococcus [14] = details: antibiotic-susceptible clinical isolate
Streptococcus mitis [15] = details: antibiotic-susceptible clinical isolate
[16] = tested on: Streptococcus constellatus; details: antibiotic-susceptible clinical isolate
Streptococcus oralis [17] = details: antibiotic-susceptible clinical isolate
Clostridium difficile [18] = assay: microbe, parasite or virus in culture; details: Clostridioides difficile
Clostridium novyi [19] = assay: microbe, parasite or virus in culture; details: ATCC19402, read-out: Minimum inhibitory concentration
Clostridium sordellii [20] = assay: microbe, parasite or virus in culture; details: Paraclostridium sordellii, NCTC13356, read-out: Minimum inhibitory concentration
[21] = tested on: Fusobacterium necrophorum; assay: microbe, parasite or virus in culture; details: read-out: Minimum inhibitory concentration
Fusobacterium nucleatum [22] = assay: microbe, parasite or virus in culture; details: read-out: Minimum inhibitory concentration
[23] = tested on: Peptostreptococcus micros; assay: microbe, parasite or virus in culture; details: Parvimonas micra, read-out: Minimum inhibitory concentration
[24] = tested on: Porphyromonas assacharolyticus; assay: microbe, parasite or virus in culture; details: read-out: Minimum inhibitory concentration
Prevotella denticola [25] = assay: microbe, parasite or virus in culture; details: read-out: Minimum inhibitory concentration
Prevotella intermedia = assay: microbe, parasite or virus in culture; details: read-out: Minimum inhibitory concentration
Prevotella oralis = assay: microbe, parasite or virus in culture; details: Hoylesella oralis, read-out: Minimum inhibitory concentration
Veillonella spp. = assay: microbe, parasite or virus in culture; details: read-out: Minimum inhibitory concentration
Enterococcus faecalis [26] = assay: microbe, parasite or virus in culture; details: ATCC29212, read-out: Minimum inhibitory concentration
Enterococcus faecium = assay: microbe, parasite or virus in culture; details: read-out: Minimum inhibitory concentration
Group G Streptococcus [27] = assay: microbe, parasite or virus in culture; details: read-out: Minimum inhibitory concentration
Streptococcus mitis [28] = assay: microbe, parasite or virus in culture; details: read-out: Minimum inhibitory concentration
[29] = tested on: Streptococcus constellatus; assay: microbe, parasite or virus in culture; details: read-out: Minimum inhibitory concentration
Streptococcus oralis [30] = assay: microbe, parasite or virus in culture; details: read-out: Minimum inhibitory concentration
[31] = antibiotic-susceptible clinical isolate
[32] = ribotype 002 - clinical isolate
[33] = ribotype 011 - clinical isolate
[34] = ribotype 027 - clinical isolate
[35] = ribotype 050 - clinical isolate
[36] = ribotype 176 - clinical isolate

## CCCC1CC(C(=O)NC(C(C)Cl)C2OC(SC)C(OC(=O)CCCC(=O)Nc3ccc(C(=O)O)cc3)C(O)C2O)N(C)C1.O=C(O)C(F)(F)F (stereo not shown) [Clindamycin glutaryl PABA ester, Clindamycin-2-(glutaryl-PABA) ester trifluoroacetate]
[1]
  Simulated gastric juice (1 h, 37° C.) % active drug generated: <1%
Eggerthella lenta; ATCC 43055
  Minimum inhibitory concentration: 16 µg/mL
Eggerthella lenta; clinical isolate
  Minimum inhibitory concentration: 16 µg/mL
[2]
  Minimum inhibitory concentration: 32 µg/mL
[3]
  Frel: 51%
[3]; listed as Clindamycin glutaryl PABA ethyl ester
  Frel: 51%
Clostridium difficile [4]; ATCC 700057
  Minimum inhibitory concentration: >64 µg/mL
Clostridium difficile [4]; NCTC 13366 - NAP1/027
  Minimum inhibitory concentration: >64 µg/mL
Clostridium difficile [4]; [31]
  Minimum inhibitory concentration: >64 µg/mL
Clostridium difficile [4]; [32]
  Minimum inhibitory concentration: >64 µg/mL
Clostridium difficile [4]; [33]
  Minimum inhibitory concentration: >64 µg/mL
Clostridium difficile [4]; [34]
  Minimum inhibitory concentration: >64 µg/mL
Clostridium difficile [4]; [35]
  Minimum inhibitory concentration: >64 µg/mL
Clostridium difficile [4]; [36]
  Minimum inhibitory concentration: >64 µg/mL
Clostridium novyi [5]
  Minimum inhibitory concentration: 4 µg/mL
Clostridium sordellii [6]
  Minimum inhibitory concentration: >64 µg/mL
[7]
  Minimum inhibitory concentration: 1 µg/mL
Fusobacterium nucleatum [8]
  Minimum inhibitory concentration: 2 µg/mL
[9]
  Minimum inhibitory concentration: 64 µg/mL
[10]
  Minimum inhibitory concentration: 0.12 µg/mL
[11]
  Minimum inhibitory concentration: 0.12 µg/mL
Prevotella bivia
  Minimum inhibitory concentration: 1 µg/mL
Prevotella denticola [12]
  Minimum inhibitory concentration: 4 µg/mL
Enterococcus faecalis [13]
  Minimum inhibitory concentration: >64 µg/mL
Corynebacterium jeikeium
  Minimum inhibitory concentration: >64 µg/mL
Listeria monocytogenes
  Minimum inhibitory concentration: 32 µg/mL
Streptococcus agalactiae
  Minimum inhibitory concentration: 2 µg/mL
Group G Streptococcus [14]
  Minimum inhibitory concentration: 2 µg/mL
Streptococcus mitis [15]
  Minimum inhibitory concentration: 0.5 µg/mL
[16]
  Minimum inhibitory concentration: 2 µg/mL
Streptococcus oralis [17]
  Minimum inhibitory concentration: 0.5 µg/mL

## CCCC1CC(C(=O)NC(C(C)Cl)C2OC(SC)C(OC(=O)CCC(=O)N[C@H](C(=O)O)C(C)C)C(O)C2O)N(C)C1 (stereo partly drawn) [Clindamycin succinyl valine ester, Clindamycin-2-[succinyl-(S)-valine]ester trifluoroacetate]
[1]
  Simulated gastric juice (1 h, 37° C.) % active drug generated: <1%
Eggerthella lenta; ATCC 43055
  Minimum inhibitory concentration: 8 µg/mL
Eggerthella lenta; clinical isolate
  Minimum inhibitory concentration: 8 µg/mL
[2]
  Minimum inhibitory concentration: 8 µg/mL
[3]
  Frel: 8%
Clostridium difficile [4]; ATCC 700057
  Minimum inhibitory concentration: >64 µg/mL
Clostridium difficile [4]; NCTC 13366 - NAP1/027
  Minimum inhibitory concentration: 64 µg/mL
Clostridium difficile [4]; [31]
  Minimum inhibitory concentration: >64 µg/mL
Clostridium difficile [4]; [32]
  Minimum inhibitory concentration: 64 µg/mL
Clostridium difficile [4]; [33]
  Minimum inhibitory concentration: 64 µg/mL
Clostridium difficile [4]; [34]
  Minimum inhibitory concentration: 64 µg/mL
Clostridium difficile [4]; [35]
  Minimum inhibitory concentration: 32 µg/mL
Clostridium difficile [4]; [36]
  Minimum inhibitory concentration: >64 µg/mL
Clostridium novyi [5]
  Minimum inhibitory concentration: 0.5 µg/mL
Clostridium sordellii [6]
  Minimum inhibitory concentration: 16 µg/mL
[7]
  Minimum inhibitory concentration: 0.12 µg/mL
Fusobacterium nucleatum [8]
  Minimum inhibitory concentration: 0.25 µg/mL
[9]
  Minimum inhibitory concentration: 16 µg/mL
[10]
  Minimum inhibitory concentration: 0.12 µg/mL
[11]
  Minimum inhibitory concentration: 0.12 µg/mL
Prevotella bivia
  Minimum inhibitory concentration: 0.5 µg/mL
Prevotella denticola [12]
  Minimum inhibitory concentration: 1 µg/mL
Enterococcus faecalis [13]
  Minimum inhibitory concentration: >64 µg/mL
Corynebacterium jeikeium
  Minimum inhibitory concentration: >64 µg/mL
Listeria monocytogenes
  Minimum inhibitory concentration: 16 µg/mL
Streptococcus agalactiae
  Minimum inhibitory concentration: 1 µg/mL
Group G Streptococcus [14]
  Minimum inhibitory concentration: 1 µg/mL
Streptococcus mitis [15]
  Minimum inhibitory concentration: 0.25 µg/mL
[16]
  Minimum inhibitory concentration: 1 µg/mL
Streptococcus oralis [17]
  Minimum inhibitory concentration: 0.25 µg/mL

## CCC[C@@H]1C[C@@H](C(=O)N[C@@H]([C@H]2O[C@H](SC)[C@H](O)[C@@H](O)[C@H]2O)[C@H](C)Cl)N(C)C1 [Clindamycin, clindamycin, reference compound]
Clostridium difficile [18]; ATCC700057, read-out: Minimum inhibitory concentration, ATCC 700057
  MIC: 8 µg/mL (≈ 18.8 µM)
Clostridium difficile [18]; NCTC13366, read-out: Minimum inhibitory concentration, NCTC 13366 - NAP1/027
  MIC: 4 µg/mL (≈ 9.41 µM)
Clostridium difficile [18]; read-out: Minimum inhibitory concentration, antibiotic-susceptible clinical isolate
  MIC: 8 µg/mL (≈ 18.8 µM)
Clostridium difficile [18]; read-out: Minimum inhibitory concentration, ribotype 002 - clinical isolate
  MIC: 2 µg/mL (≈ 4.71 µM)
Clostridium difficile [18]; read-out: Minimum inhibitory concentration, ribotype 011 - clinical isolate
  MIC: 4 µg/mL (≈ 9.41 µM)
Clostridium difficile [18]; read-out: Minimum inhibitory concentration, ribotype 027 - clinical isolate
  MIC: 4 µg/mL (≈ 9.41 µM)
Clostridium difficile [18]; read-out: Minimum inhibitory concentration, ribotype 050 - clinical isolate
  MIC: 4 µg/mL (≈ 9.41 µM)
Clostridium difficile [18]; read-out: Minimum inhibitory concentration, ribotype 176 - clinical isolate
  MIC: 4 µg/mL (≈ 9.41 µM)
Clostridium novyi [19]
  MIC: ≤ 0.03 µg/mL
Clostridium sordellii [20]
  MIC: 0.5 µg/mL (≈ 1.18 µM)
[21]
  MIC: ≤ 0.03 µg/mL
Fusobacterium nucleatum [22]
  MIC: ≤ 0.03 µg/mL
[23]
  MIC: 0.06 µg/mL (≈ 0.141 µM)
[24]
  MIC: ≤ 0.03 µg/mL
Prevotella denticola [25]
  MIC: ≤ 0.03 µg/mL
Prevotella intermedia
  MIC: ≤ 0.03 µg/mL
Prevotella oralis
  MIC: ≤ 0.03 µg/mL
Veillonella spp.
  MIC: ≤ 0.03 µg/mL
Enterococcus faecalis [26]
  MIC: 8 µg/mL (≈ 18.8 µM)
Enterococcus faecium
  MIC: 32 µg/mL (≈ 75.3 µM)
Group G Streptococcus [27]
  MIC: ≤ 0.03 µg/mL
Streptococcus mitis [28]
  MIC: ≤ 0.03 µg/mL
[29]
  MIC: ≤ 0.03 µg/mL
Streptococcus oralis [30]
  MIC: ≤ 0.03 µg/mL

Reference: patent US20120202756A1, “USE OF PRODRUGS TO AVOID GI MEDIATED ADVERSE EVENTS” (priority 2009, published 2012)
